Here are results for three compounds from patent publication US20100291236A1, “OSMIUM COMPOUNDS” (THE UNIVERSITY OF WARWICK, priority 2006, published 2010).

Series [1] relates to A549 human lung and A2780 human ovarian cancer cell lines. Put plainly: Cytotoxicity in A549 and A2780 cell lines, result not split by cell line. In kind it is cell-based. The procedure:
(§1) Experimental: Cytotoxicity Towards A2780 and A549 Human Cancer Cells. After plating, human ovarian A2780 cancer cells were treated with Os^II complexes on day 3, and human lung A549 cancer cells on day 2, at concentrations ranging from 2 μM to 50 μM. Solutions of the Os^II complexes were made up in 0.125% DMSO to assist dissolution. Cells were exposed to the complexes for 24 h, washed, supplied with fresh medium, allowed to grow for three doubling times (72 h), and then the protein content measured (proportional to cell survival) using the sulforhodamine B (SRB) assay.
(§2) Cancer Cell Cytotoxicity. After plating, human ovarian A2780 cancer cells were treated with OsII complexes on day 3, and human lung A549 cancer cells on day 2, at concentrations ranging from 0.1 μM to 100 μM. Solutions of the OsII complexes were made up in 0.125% DMSO to assist dissolution. Cells were exposed to the complexes for 24 h, washed, supplied with fresh medium, allowed to grow for three doubling times (72 h), and then the protein content measured (proportional to cell survival) using the sulforhodamine B (SRB) assay.10

The nature of series [2]: Stability in isotonic saline solutions. Type of series: physicochemical. The following applies: after 16 days of storage in the dark. On the procedure:
Stability tests on AFAP42, 64, 62, 05, 51 and 65 in isotonic saline solutions were also performed.

A short description of series [3]: Acidity (pKa / pKa*) of coordinated water, 1H NMR pH* titration. The following applies: aqua adduct. The text has this: pKa* calculations. […] The chemical shifts of the arene ring protons were plotted against pH*. The pH* titration curves were fitted to the Henderson-Hasselbalch equation, with the assumption that the observed chemical shifts are weighted averages according to the populations of the protonated and deprotonated species.

Series [4] has as its system human ovarian A2780 cancer cells. In words: Cytotoxicity towards A2780 cells, sulforhodamine B (SRB) assay. In kind it is cell-based. The following applies: Table 7; 24 h exposure, 72 h growth, 2-50 μM; read-out: IC50/μM A2780. On the procedure:
as §1, §2
On the technique in general: The SRB assay estimates cell density from bound dye.

For series [5] the test system is unchanged. The following applies: Peacock et al, J. Am. Chem. Soc. 2006; said to be erroneous; cited from earlier work.
The conditions of series [6]: extreme conditions of heating, sonicating, exposure to air and extreme sunlight. The procedure: Samples are prepared for testing by initially dissolving in 5% DMSO and subsequently diluting down.
The test system of series [7] is human lung A549 cancer cells. In words: Cytotoxicity towards A549 cells, sulforhodamine B (SRB) assay. The following applies: Table 7; 24 h exposure, 72 h growth, 2-50 μM; read-out: IC50/μM A549. In kind it is cell-based. The procedure:
as §1, §2

Series [8] in a line: Hydrolysis (aquation) kinetics followed by 1H NMR. In kind it is physicochemical. The following applies: osmium complex versus equivalent ruthenium complex. The procedure: Hydrolysis. […] The rate of hydrolysis was determined by fitting plots of concentrations (determined by ^1H NMR peak integrals) versus time to a pseudo first-order equation using ORIGIN version 5.0 (Microcal Software Ltd.).

The test system of series [9] is A2780cisR (with acquired cisplatin resistance). The following applies: MTT, 72 hours exposure, 0 to 128 μM. On the procedure: All experiments were made in quadruplicate.
All experiments were performed in quadruplicate.

Series [10] is described as follows: Aqueous solubility.

The structures appear in SMILES notation. Entries after “also recorded” stand apart in the source; their conditions may differ.

Take `F[B-](F)(F)F.[Cl][Os-]1[NH2+]CC[NH2+]1.c1ccc(-c2ccccc2)cc1` [AFAP51, [(η^6-bip)Os(en)Cl]BF4]: the “Cytotoxicity, A549 and A2780” value in series [1] is given as “does show cytotoxicity”. In addition, in [2], the “Stability of isotonic saline solutions” value was “stable”. For the same compound, the “pKa of water coordinated on hydrolysis (aqua adduct of complex)” value in series [3] stood at 6.34. Also, the IC50 in series [4] came out at 7.6 µM; in [7], 10 µM. For the same compound, in series [5], the “Activity toward A2780 cells as previously reported” value was “inactive”. Also, the “Stability of solutions in DMSO-d6” value in [6] is recorded as “can decompose”.

For `[Cl][Os-]1[NH2+]CC[NH2+]1.c1ccc(-c2ccccc2)cc1` [[(η^6-bip)Os(en)Cl]^+], the “Hydrolysis slower than the equivalent ruthenium complex” value in [8] amounted to 40 times. In series [9], the “Activity in cisplatin resistant A2780cisR compared with A2780” value is given as “even greater activity in the cisplatin resistant cell line”.

For `Cc1ccc(C(C)C)cc1.Cc1ccc2c(c1)[S][Os-]([Cl])[S]2.[Na+]` (centres unmarked) [AFAP40, [(η^6-p-cym)Os(S2C7H6)Cl]Na], the “Aqueous solubility” value in series [10] was “very poor”. In [1], the “Cytotoxicity, A549 and A2780” value is “showed activity; also recorded: Shows cytotoxicity”.
